In US8058309B2, “Protein kinase modulators and therapeutic uses thereof” (Novotyr Therapeutics Ltd., priority 2006, dated 2011):

Tests used:
[1] = biological target: T1, IGF1R (Homo sapiens, UniProt P08069); assay: Inhibition of IGF1-induced signaling in intact MCF7 cells (western blot); type: cell-based; conditions: for Inhibition of IGF1R autophosphorylation and IGF1-induced signaling (IRS1 pTyr, Akt/PKB, MAPK/ERK): 4 h exposure, IGF1 stimulation
T1 construct: made in house
Experimental: (§1) Tyrosine autophosphorylation of the β-subunit of IGF1R as well as downstream signaling induced by IGF1R were assayed in breast cancer MCF7 cells. Tyrosine autophosphorylation of the EGFR and the EGFR signaling was assayed in prostate cancer PC3 cells. Tyrosine autophosphorylation of the PDGFR and its signaling was assayed in fibroblasts overexpres sing PDGFR. Tyro sine autophosphorylation of the IR and its signaling was assayed in fibroblasts overexpressing IR. Cells were seeded in 6-well plates (MCF7-250,000 cells/well, PC3-150,000 cells/well, fibroblasts-140,000 cells/well) and 24 hours later medium was replaced by serum-free medium (DMEM supplemented with 100 units/ml penicillin and 100 μg/ml streptomycin). Following 20 hours of serum-starvation medium was replaced with medium containing various concentrations of the inhibitors in 0.1% DMSO for additional 4 hours. Cells were then stimulated for 5 min with 50 ng/ml IGF-1 (MCF7 cells), 20 ng/ml EGF (PC3 cells), 50 ng/ml PDGF (fibroblasts overexpressing PDGFR) or 100 nM insulin (fibroblasts overexpressing IR), washed twice with PBS and lysed by boiling sample buffer (10% glycerol, 50 mM Tris-HCl, pH 6.8, 3% SDS, and 5%, β-mercaptoethanol). Equal amounts of protein per lane were separated by 8% SDS-PAGE and transferred to a nitrocellulose membrane (Sartorius AG). Phosphorylated proteins were immunoblotted with anti-phospho-IGF1R (phosphor-IGF1R), anti-phosphotyrosine-IRS1 (phospho-IRS1), anti-phospho(T308)Akt (phospho-PKB), anti-phospho-Erk (phospho-ERK), anti-phosphotyrosine 4G10&PY20 (pY-EGFR or pY-PDGFR), anti-phospho-Ser^636/639-IRS1 (pS^636/639-IRS1) and anti-phospho-STAT3 (phospho-STAT3) antibodies. Detection was performed with horseradish peroxidase-conjugated secondary antibody using the ECL system. Blots were then stripped of antibodies, blocked with TBST with 5% low fat milk and re-probed with antibodies detecting both the phosphorylated and the non-phosphorylated corresponding proteins e.g. IGF1Rβ, IRS1, PKB, ERK, IRβ, PDGFR and Stat3.

[2] = biological target: T2, EGFR (Homo sapiens, UniProt P00533); assay: EGFR activation and EGF-induced signaling in PC3 cells; type: cell-based; conditions: EGF stimulation
T2 construct: endogenous in cells; host or cells: PC3
Experimental: as §1, with “Phosphorylated proteins were immunoblotted with anti-phospho-IGF1R (phosphor-IGF1R), anti-phosphotyrosine-IRS1 (phospho-IRS1), anti-phospho(T308)Akt (phospho-PKB), anti-phospho-Erk (phospho-ERK), anti-phosphotyrosine 4G10&PY20 (pY-EGFR or pY-PDGFR), anti-phospho-Ser^636/639-IRS1 (pS^636/639-IRS1) and anti-phospho-STAT3 (phospho-STAT3) antibodies. Detection was performed with horseradish peroxidase-conjugated secondary antibody using the ECL system. Blots were then stripped of antibodies, blocked with TBST with 5% low fat milk and re-probed with antibodies detecting both the phosphorylated and the non-phosphorylated corresponding proteins e.g. IGF1Rβ, IRS1, PKB, ERK, IRβ, PDGFR and Stat3.” left out

[3] = test system: PDGFR; assay: PDGFR activation and signaling in fibroblasts overexpressing PDGFR; type: cell-based; conditions: fibroblasts over-expressing PDGFR, PDGF stimulation
Experimental: as §1, with “Phosphorylated proteins were immunoblotted with anti-phospho-IGF1R (phosphor-IGF1R), anti-phosphotyrosine-IRS1 (phospho-IRS1), anti-phospho(T308)Akt (phospho-PKB), anti-phospho-Erk (phospho-ERK), anti-phosphotyrosine 4G10&PY20 (pY-EGFR or pY-PDGFR), anti-phospho-Ser^636/639-IRS1 (pS^636/639-IRS1) and anti-phospho-STAT3 (phospho-STAT3) antibodies. Detection was performed with horseradish peroxidase-conjugated secondary antibody using the ECL system. Blots were then stripped of antibodies, blocked with TBST with 5% low fat milk and re-probed with antibodies detecting both the phosphorylated and the non-phosphorylated corresponding proteins e.g. IGF1Rβ, IRS1, PKB, ERK, IRβ, PDGFR and Stat3.” left out

[4] = biological target: T3, IR (Homo sapiens, UniProt P06213); assay: Insulin receptor activation and signaling in fibroblasts overexpressing IR; type: cell-based; conditions: fibroblasts over-expressing IR, insulin stimulation
T3 construct: expressed in transfected cells; host or cells: NIH3T3 fibroblasts over expressing IR
Experimental: as §1, with “Phosphorylated proteins were immunoblotted with anti-phospho-IGF1R (phosphor-IGF1R), anti-phosphotyrosine-IRS1 (phospho-IRS1), anti-phospho(T308)Akt (phospho-PKB), anti-phospho-Erk (phospho-ERK), anti-phosphotyrosine 4G10&PY20 (pY-EGFR or pY-PDGFR), anti-phospho-Ser^636/639-IRS1 (pS^636/639-IRS1) and anti-phospho-STAT3 (phospho-STAT3) antibodies. Detection was performed with horseradish peroxidase-conjugated secondary antibody using the ECL system. Blots were then stripped of antibodies, blocked with TBST with 5% low fat milk and re-probed with antibodies detecting both the phosphorylated and the non-phosphorylated corresponding proteins e.g. IGF1Rβ, IRS1, PKB, ERK, IRβ, PDGFR and Stat3.” left out

[5] = test system: MEK; assay: MEK activity in cells (ERK phosphorylation); type: cell-based
Experimental: as §1, with “Phosphorylated proteins were immunoblotted with anti-phospho-IGF1R (phosphor-IGF1R), anti-phosphotyrosine-IRS1 (phospho-IRS1), anti-phospho(T308)Akt (phospho-PKB), anti-phospho-Erk (phospho-ERK), anti-phosphotyrosine 4G10&PY20 (pY-EGFR or pY-PDGFR), anti-phospho-Ser^636/639-IRS1 (pS^636/639-IRS1) and anti-phospho-STAT3 (phospho-STAT3) antibodies. Detection was performed with horseradish peroxidase-conjugated secondary antibody using the ECL system. Blots were then stripped of antibodies, blocked with TBST with 5% low fat milk and re-probed with antibodies detecting both the phosphorylated and the non-phosphorylated corresponding proteins e.g. IGF1Rβ, IRS1, PKB, ERK, IRβ, PDGFR and Stat3.” left out

[6] = biological target: T4, PDK (Homo sapiens, UniProt O15530); assay: PDK activity in cells (PKB Thr308 phosphorylation); type: cell-based
T4 construct: endogenous in cells
Experimental: as §1, with “Phosphorylated proteins were immunoblotted with anti-phospho-IGF1R (phosphor-IGF1R), anti-phosphotyrosine-IRS1 (phospho-IRS1), anti-phospho(T308)Akt (phospho-PKB), anti-phospho-Erk (phospho-ERK), anti-phosphotyrosine 4G10&PY20 (pY-EGFR or pY-PDGFR), anti-phospho-Ser^636/639-IRS1 (pS^636/639-IRS1) and anti-phospho-STAT3 (phospho-STAT3) antibodies. Detection was performed with horseradish peroxidase-conjugated secondary antibody using the ECL system. Blots were then stripped of antibodies, blocked with TBST with 5% low fat milk and re-probed with antibodies detecting both the phosphorylated and the non-phosphorylated corresponding proteins e.g. IGF1Rβ, IRS1, PKB, ERK, IRβ, PDGFR and Stat3.” left out

[7] = test system: primary keratinocytes; assay: In-vitro inhibition of keratinocyte growth; type: cell-based; conditions: growth factor enriched medium
Experimental: Primary keratinocytes were seeded in 96-well plates in growth factor enriched medium. After 48 hours medium was refreshed and compound 7 was added at the indicated concentrations (0 is 0.1% DMSO which was kept constant in all wells). Every 24 hours medium and compound 7 were refreshed, and 5 days following seeding cells were fixed with 0.5% gluteraldehide for 10 min, stained with Methylene-Blue. Access stain was washed away and the bound stain was extracted by 0.1N HCl. Absorbance at 620 nm wavelength was read in ELISA reader.

[8] = test system: PC3 tumors; assay: Hormone-refractory prostate cancer PC3 xenograft tumor growth; type: in vivo, nude mice
Experimental: (§2) Human hormone-refractory prostate cancer PC3 cells (ATCC, 1.5×10^6 cells per mouse) were injected subcutaneously into the right leg of Nude:Hsd mice (purchased from Harlan). Ten days later, when palpable tumors had developed, mice were divided into 3 groups with similar average tumor size. […] The mice treated with compound 7 group were daily injected with compound 7 dissolved in the below described vehicle, and the vehicle-treated group (veh) was daily injected by the vehicle alone. Vehicle included 4.4% DMSO, 1.2% Ethanol and 50% PEG400 in DDW; Groups were composed of 3 mice per group. Dose administered IP was 50 mg/Kg (4 ml/Kg) once a day for one month. The length (l) and the width (w) of the tumors were measured every day and the volumes of the tumors were calculated as follows: v=1w^2/2. Graphs present average volumes of the tumors versus time in days. The procedure was followed for the other described in-vivo studies with the following modifications: […]

[9] = Body weight of treated nude mice; type: in vivo; conditions: IP, 1/day, 50 mg/kg, over 4 weeks
Experimental: as §2

[10] = test system: B16 tumors; assay: Melanoma B16 tumor growth; type: in vivo, nude mice; conditions: IP, 20 mg/kg, 1/day
Experimental: (§3) Human hormone-refractory prostate cancer PC3 cells (ATCC, 1.5×10^6 cells per mouse) were injected subcutaneously into the right leg of Nude:Hsd mice (purchased from Harlan). Ten days later, when palpable tumors had developed, mice were divided into 3 groups with similar average tumor size. […] The mice treated with compound 7 group were daily injected with compound 7 dissolved in the below described vehicle, and the vehicle-treated group (veh) was daily injected by the vehicle alone. Vehicle included 4.4% DMSO, 1.2% Ethanol and 50% PEG400 in DDW; Groups were composed of 3 mice per group. Dose administered IP was 50 mg/Kg (4 ml/Kg) once a day for one month. The length (l) and the width (w) of the tumors were measured every day and the volumes of the tumors were calculated as follows: v=1w^2/2. Graphs present average volumes of the tumors versus time in days. The procedure was followed for the other described in-vivo studies with the following modifications:
The mouse B16 melanoma cells (1.5×10^6 cells per mouse) were injected subcutaneously into the right leg of male Nude:Hsd mice (purchased from Harlan). Inhibitors were injected IP daily at a dose of 20 mg/kg dissolved in 4.4% % DMSO, 1.2% EtOH, 33% PEG-400 in DDW at volume of 4 ml/kg.

[11] = test system: YUMAC tumors; assay: Human melanoma YUMAC xenograft tumor growth; type: in vivo, nude mice; conditions: IP, 20 mg/kg, 1/day
Experimental: as §3
The human YUMAC metastatic melanoma cells (2×10^6 cells per mouse), provided by Dr. Ruth Halaban (Yale University), were injected subcutaneously into the right leg of male Nude:Hsd mice (purchased from Harlan). Inhibitors were injected IP daily at a dose of 20 mg/kg dissolved in 8% EtOH, 2% Tween-80, 20% PEG-400 and 20% solutol in DDW at volume of 4 ml/kg.

T1 sequence (P08069 31-1367, species assumed): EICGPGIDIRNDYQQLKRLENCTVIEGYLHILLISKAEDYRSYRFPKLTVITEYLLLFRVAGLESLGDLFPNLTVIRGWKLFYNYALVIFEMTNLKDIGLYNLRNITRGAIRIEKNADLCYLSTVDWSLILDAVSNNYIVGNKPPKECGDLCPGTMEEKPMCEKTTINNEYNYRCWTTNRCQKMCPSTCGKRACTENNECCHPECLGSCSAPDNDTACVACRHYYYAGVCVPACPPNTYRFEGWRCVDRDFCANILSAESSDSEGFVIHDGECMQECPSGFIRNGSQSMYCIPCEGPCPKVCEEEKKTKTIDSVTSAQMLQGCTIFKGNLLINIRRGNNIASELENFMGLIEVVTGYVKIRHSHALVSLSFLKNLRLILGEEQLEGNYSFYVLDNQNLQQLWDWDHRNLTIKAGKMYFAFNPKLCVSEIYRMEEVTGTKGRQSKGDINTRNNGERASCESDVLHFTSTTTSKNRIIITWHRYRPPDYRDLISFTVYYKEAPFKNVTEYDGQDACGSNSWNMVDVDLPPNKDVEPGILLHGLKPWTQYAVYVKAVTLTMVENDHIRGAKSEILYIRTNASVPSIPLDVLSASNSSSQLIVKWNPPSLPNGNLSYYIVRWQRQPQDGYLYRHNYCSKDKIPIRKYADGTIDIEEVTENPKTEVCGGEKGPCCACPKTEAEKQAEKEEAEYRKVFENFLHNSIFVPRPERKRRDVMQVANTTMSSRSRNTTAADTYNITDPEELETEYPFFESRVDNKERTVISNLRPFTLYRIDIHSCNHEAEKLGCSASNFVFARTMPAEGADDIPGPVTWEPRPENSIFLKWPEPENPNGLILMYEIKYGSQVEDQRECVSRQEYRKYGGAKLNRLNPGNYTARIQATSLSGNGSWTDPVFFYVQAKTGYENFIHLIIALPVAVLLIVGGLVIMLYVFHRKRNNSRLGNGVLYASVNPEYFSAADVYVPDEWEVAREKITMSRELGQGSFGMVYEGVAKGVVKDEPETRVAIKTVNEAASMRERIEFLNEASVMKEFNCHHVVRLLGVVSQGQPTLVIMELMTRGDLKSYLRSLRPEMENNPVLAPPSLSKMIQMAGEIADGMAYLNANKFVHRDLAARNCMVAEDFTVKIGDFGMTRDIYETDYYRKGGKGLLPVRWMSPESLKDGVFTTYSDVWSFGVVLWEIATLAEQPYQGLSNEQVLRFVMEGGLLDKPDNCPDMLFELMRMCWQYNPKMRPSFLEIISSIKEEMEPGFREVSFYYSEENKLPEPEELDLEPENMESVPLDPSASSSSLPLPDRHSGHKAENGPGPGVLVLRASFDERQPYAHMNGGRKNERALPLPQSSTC
T2 sequence (P00533 25-1210): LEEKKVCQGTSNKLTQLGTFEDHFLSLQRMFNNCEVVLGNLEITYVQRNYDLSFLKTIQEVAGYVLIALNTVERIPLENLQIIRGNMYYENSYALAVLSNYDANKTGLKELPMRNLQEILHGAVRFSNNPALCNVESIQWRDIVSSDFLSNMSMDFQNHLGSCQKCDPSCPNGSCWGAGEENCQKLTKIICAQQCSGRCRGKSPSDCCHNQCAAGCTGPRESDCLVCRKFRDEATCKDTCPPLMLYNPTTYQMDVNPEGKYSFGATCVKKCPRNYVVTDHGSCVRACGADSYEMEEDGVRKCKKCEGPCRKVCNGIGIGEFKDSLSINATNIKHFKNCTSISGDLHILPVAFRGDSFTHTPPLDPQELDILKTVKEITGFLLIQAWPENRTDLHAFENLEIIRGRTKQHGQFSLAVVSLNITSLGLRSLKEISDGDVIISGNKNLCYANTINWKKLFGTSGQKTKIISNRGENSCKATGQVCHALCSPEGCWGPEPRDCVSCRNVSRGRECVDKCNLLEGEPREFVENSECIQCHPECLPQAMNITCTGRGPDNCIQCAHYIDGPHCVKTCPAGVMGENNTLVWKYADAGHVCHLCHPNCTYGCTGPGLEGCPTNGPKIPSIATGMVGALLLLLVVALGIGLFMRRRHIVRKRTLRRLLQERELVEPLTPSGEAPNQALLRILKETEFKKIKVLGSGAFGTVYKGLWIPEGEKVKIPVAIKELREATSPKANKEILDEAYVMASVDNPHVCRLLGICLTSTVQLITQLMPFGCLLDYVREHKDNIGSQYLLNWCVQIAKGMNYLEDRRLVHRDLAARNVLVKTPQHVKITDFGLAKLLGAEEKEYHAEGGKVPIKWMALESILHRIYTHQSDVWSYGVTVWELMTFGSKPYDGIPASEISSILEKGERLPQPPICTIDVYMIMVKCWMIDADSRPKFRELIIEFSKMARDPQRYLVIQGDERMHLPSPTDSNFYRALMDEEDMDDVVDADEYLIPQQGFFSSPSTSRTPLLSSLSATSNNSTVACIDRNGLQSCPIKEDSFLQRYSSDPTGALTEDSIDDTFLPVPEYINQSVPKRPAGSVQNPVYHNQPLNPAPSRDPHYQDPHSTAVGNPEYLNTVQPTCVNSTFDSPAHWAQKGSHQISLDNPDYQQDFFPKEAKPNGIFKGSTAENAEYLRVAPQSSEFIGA
T3 sequence (P06213 28-1382): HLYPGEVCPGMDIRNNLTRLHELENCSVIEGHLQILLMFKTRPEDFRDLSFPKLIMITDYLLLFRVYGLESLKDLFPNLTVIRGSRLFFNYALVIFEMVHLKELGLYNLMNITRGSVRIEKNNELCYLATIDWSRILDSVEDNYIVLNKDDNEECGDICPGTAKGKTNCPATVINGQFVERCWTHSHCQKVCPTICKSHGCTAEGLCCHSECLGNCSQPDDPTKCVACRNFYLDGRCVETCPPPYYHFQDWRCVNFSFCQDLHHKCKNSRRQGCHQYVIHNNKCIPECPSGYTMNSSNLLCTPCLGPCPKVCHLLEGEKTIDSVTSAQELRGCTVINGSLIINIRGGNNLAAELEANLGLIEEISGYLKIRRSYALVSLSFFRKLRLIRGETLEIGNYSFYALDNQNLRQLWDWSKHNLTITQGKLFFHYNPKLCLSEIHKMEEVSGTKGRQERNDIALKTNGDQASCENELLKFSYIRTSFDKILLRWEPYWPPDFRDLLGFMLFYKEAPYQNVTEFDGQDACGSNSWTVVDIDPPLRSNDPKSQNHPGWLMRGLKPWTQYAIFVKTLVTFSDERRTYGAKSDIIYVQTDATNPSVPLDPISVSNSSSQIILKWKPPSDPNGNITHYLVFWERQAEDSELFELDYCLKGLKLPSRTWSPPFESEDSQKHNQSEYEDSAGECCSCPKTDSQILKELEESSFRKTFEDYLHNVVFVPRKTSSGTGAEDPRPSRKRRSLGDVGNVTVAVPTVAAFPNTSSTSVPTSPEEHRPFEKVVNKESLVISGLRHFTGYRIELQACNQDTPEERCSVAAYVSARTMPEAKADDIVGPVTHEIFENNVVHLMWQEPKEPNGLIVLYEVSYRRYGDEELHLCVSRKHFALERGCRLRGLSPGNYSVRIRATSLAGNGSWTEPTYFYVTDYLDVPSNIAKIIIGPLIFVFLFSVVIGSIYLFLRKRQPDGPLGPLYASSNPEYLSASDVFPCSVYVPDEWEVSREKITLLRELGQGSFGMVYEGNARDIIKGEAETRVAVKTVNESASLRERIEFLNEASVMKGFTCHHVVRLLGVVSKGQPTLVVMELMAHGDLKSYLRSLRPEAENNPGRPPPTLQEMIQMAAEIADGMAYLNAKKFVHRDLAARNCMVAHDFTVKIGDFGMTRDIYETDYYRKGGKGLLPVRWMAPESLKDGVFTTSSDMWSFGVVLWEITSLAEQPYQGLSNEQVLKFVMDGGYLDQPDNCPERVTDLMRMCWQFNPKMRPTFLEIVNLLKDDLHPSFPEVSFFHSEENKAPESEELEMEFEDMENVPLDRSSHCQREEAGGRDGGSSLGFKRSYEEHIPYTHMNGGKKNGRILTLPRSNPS
T4 sequence (O15530 whole entry): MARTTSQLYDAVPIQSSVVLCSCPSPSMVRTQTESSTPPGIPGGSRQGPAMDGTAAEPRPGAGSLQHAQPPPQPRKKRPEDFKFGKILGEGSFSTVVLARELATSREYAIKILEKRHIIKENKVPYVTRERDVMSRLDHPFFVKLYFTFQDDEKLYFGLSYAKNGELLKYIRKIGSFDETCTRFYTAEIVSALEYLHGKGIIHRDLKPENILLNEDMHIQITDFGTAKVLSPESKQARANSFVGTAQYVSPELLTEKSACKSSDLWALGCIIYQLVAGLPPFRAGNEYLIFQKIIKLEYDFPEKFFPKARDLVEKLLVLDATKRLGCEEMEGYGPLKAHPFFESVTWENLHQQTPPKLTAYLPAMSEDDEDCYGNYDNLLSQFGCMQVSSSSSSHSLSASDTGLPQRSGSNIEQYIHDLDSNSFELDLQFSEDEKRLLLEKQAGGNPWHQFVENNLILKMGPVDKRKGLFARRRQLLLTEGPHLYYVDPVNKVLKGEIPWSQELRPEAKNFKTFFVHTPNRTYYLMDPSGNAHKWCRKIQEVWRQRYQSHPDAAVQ

Row | IC50 ([1]; read-out: IC50 in inhibition of the Akt/PKB pathway downstream IGF1R) | Inhibition of EGFR and EGF-induced signaling in intact cells [2] | Inhibition of IR in intact cells [4] | Inhibition of PDK (phosphorylation of PKB Thr308) [6] | SMILES | Inhibition of IGF1R autophosphorylation and IGF1-induced signaling (IRS1 pTyr, Akt/PKB, MAPK/ERK) [1] | Inhibition of PDGFR in intact cells [3] | Inhibition of MEK (phosphorylation of ERK) [5] | IC50 [7] | Growth inhibition of HRPC PC3 tumors ([8]; IP, 1/day, 50 mg/kg, one month, vs vehicle treated and untreated) | Efficacy on HRPC model by intratumoral administration ([8]; intratumoral administration) | Effect on body weight of the mice [9] | Growth inhibition of melanoma B16 tumors [10] | Growth inhibition of human melanoma YUMAC tumors [11]
1 | 1 to 2 µM | inhibits | inhibits | not inhibited | N#C/C(=C\c1cc(O)c(O)c(Br)c1)C(=S)NCc1cc(O)c(O)c(O)c1 [Compound 7] | dramatically inhibited | inhibits | not inhibited | 2.3 µM | 82% | efficient | no significant effect | significant inhibitory effect | –
2 | – | inhibited also EGFR | – | – | N#C/C(=C\c1cc(O)c(O)c(Br)c1)C(=S)NCc1cc(O)c(O)c(Br)c1 [Compound 6] | inhibited the autophosphorylation of IGF1R | – | – | – | – | – | – | significant inhibitory effect | –
3 | – | – | – | – | N#C/C(=C\c1cc(O)c(O)c(I)c1)C(=S)NCc1cc(O)c(O)c(O)c1 [Compound 8] | – | – | – | – | – | – | – | – | inhibition
